In patent US11332459B2 (TEIJIN PHARMA LIMITED, priority 2017, dated 2022) one finds IC50 data, which are given here for 22 compounds.

This test deals with T1, human TRPC6 (Homo sapiens, UniProt Q9Y210).
T1 construct: expressed in transfected cells
T1 sequence (Q9Y210 1-931): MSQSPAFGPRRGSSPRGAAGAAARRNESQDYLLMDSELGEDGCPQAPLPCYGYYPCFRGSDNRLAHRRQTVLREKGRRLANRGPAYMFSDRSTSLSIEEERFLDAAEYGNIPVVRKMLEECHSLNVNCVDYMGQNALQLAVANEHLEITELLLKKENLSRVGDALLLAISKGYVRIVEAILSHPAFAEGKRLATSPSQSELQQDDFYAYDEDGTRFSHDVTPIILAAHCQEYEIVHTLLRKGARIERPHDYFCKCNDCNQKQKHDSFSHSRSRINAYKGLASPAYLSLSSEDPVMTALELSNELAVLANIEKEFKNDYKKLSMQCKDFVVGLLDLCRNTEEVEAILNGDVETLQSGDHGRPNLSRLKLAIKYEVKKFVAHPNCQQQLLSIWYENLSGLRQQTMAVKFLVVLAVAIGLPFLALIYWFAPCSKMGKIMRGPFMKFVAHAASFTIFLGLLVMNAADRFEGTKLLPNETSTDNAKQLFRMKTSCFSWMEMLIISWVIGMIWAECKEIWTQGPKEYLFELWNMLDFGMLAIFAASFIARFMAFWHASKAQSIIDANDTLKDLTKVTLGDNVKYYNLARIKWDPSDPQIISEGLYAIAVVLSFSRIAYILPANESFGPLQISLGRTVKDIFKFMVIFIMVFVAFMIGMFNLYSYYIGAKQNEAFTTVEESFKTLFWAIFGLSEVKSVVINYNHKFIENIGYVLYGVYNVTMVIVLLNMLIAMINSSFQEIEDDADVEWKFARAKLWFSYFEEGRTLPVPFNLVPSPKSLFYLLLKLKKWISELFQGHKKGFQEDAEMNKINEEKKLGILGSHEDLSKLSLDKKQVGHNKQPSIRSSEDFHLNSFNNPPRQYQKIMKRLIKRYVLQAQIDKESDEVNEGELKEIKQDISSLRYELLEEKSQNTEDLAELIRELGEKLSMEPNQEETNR
Kind of test: TRPC6 calcium flux assay (FLIPR, OAG-stimulated calcium influx). It counts as cell-based. As to conditions: HEK293 cells stably transfected with human TRPC6, read-out: hTRPC6 Potency. In outline:
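HEK293 cells stably expressing human TRPC6, loaded with calcium dye 90–120 min at RT, then given compound for 25 min before OAG (50 uM final, 0.5% DMSO) in HEPES buffer pH 7.2 with 2 mM CaCl2. Background-subtracted FLIPR peak over 180 s normalized to OAG vs buffer; IC50 from dose plot.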
A general note: Calcium flux is commonly read through the fluorescence of an indicator in the cells.
Regarding `Cc1nnc(Cn2c(N3CC[C@@H](F)[C@H](N)C3)nc3cc(F)cc(F)c32)s1` [Example 599, (3R,4R)-1-(5,7-difluoro-1-((5-methyl-1,3,4-thiadiazol-2-yl)methyl)-1H-benzo[d]imidazal-2-yl)-4-fluoropiperidin-3-amine], the IC50 was > 3750 nM.
Then `CC1CCN1C(=O)Cn1c(N2CC[C@@H](F)[C@H](N)C2)nc2cc(F)c(F)cc21` (stereo partly drawn) [Example 600, 2-(2-((3R,4R)-3-amino-4-fluoropiperidin-1-yl)-5,6-difluoro-1H-benzo[d]imidazol-1-yl)-1-(2-methylazetidin-1-yl)ethanone], with 5.38 nM; and `CN(CC(F)F)C(=O)Cn1c(N2CC[C@@H](F)[C@H](N)C2)nc2cc(F)c(F)cc21` [Example 601, 2-(2-((3R,4R)-3-amino-4-fluoropiperidin-1-yl)-5,6-difluoro-1H-benzo[d]imidazol-1-yl)-N-(2,2-difluoroethyl)-N-methylacetamide], with 5.56 nM; and `CN(C(=O)Cn1c(N2CC[C@@H](F)[C@H](N)C2)nc2cc(F)c(F)cc21)C1CC1` [Example 602, 2-(2-((3R,4R)-3-amino-4-fluoropiperidin-1-yl)-5,6-difluoro-1H-benzo[d]imidazol-1-yl)-N-cyclopropyl-N-methylacetamide], with 5.75 nM.
The value for `C[C@H](C#N)N(C)C(=O)Cn1c(N2CC[C@@H](F)[C@H](N)C2)nc2cc(F)c(F)cc21` [Example 603, 2-(2-((3R,4R)-3-amino-4-fluoropiperidin-1-yl)-5,6-difluoro-1H-benzo[d]imidazol-1-yl)-N-((R)-1-cyanoethyl)-N-methylacetamide] was 6.73 nM; that for `C[C@H](c1ccccn1)N(C)C(=O)Cn1c(N2CC[C@@H](F)[C@H](N)C2)nc2cc(F)c(F)cc21` [Example 604] was 7.78 nM.
With `CCN(C)C(=O)Cn1c(N2CC[C@@H](F)[C@H](N)C2)nc2cc(F)c(F)cc21` [Example 605, 2-(2-((3R,4R)-3-amino-4-fluoropiperidin-1-yl)-5,6-difluoro-1H-benzo[d]imidazol-1-yl)-N-ethyl-N-methylacetamide], the IC50 turned out to be 7.9 nM.
The value for `CN(CCF)C(=O)Cn1c(N2CC[C@@H](F)[C@H](N)C2)nc2cc(F)c(F)cc21` [Example 606, 2-(2-((3R,4R)-3-amino-4-fluoropiperidin-1-yl)-5,6-difluoro-1H-benzo[d]imidazol-1-yl)-N-(2-fluoroethyl)-N-methylacetamide] was 8.06 nM; that for `N[C@@H]1CN(c2nc3cc(F)c(F)cc3n2CC(=O)N2C[C@H]3C[C@H]3C2)CC[C@H]1F` [Example 607, 2-(2-((3R,4R)-3-amino-4-fluoropiperidin-1-yl)-5,6-difluoro-1H-benzo[d]imidazol-1-yl)-1-((1R,5S)-3-azabicyclo[3.1.0]hexan-3-yl)ethanone] was 14.3 nM.
The value for `C[C@@H](C#N)N(C)C(=O)Cn1c(N2CC[C@@H](F)[C@H](N)C2)nc2cc(F)c(F)cc21` [Example 610, 2-(2-((3R,4R)-3-amino-4-fluoropiperidin-1-yl)-5,6-difluoro-1H-benzo[d]imidazol-1-yl)-N-((S)-1-cyanoethyl)-N-methylacetamide] was 21.2 nM; that for `CN(C(=O)Cn1c(N2CC[C@@H](F)[C@H](N)C2)nc2cc(F)c(F)cc21)C1CCOC1` (stereo partly drawn) [Example 611, 2-(2-((3R,4R)-3-amino-4-fluoropiperidin-1-yl)-5,6-difluoro-1H-benzo[d]imidazol-1-yl)-N-methyl-N-(tetrahydrofuran-3-yl)acetamide] was 22.4 nM; that for `CC(c1ccncc1)N(C)C(=O)Cn1c(N2CC[C@@H](F)[C@H](N)C2)nc2cc(F)c(F)cc21` (stereo partly drawn) [Example 613, 2-(2-((3R,4R)-3-amino-4-fluoropiperidin-1-yl)-5,6-difluoro-1H-benzo[d]imidazol-1-yl)-N-methyl-N-(1-(pyridin-4-yl)ethyl)acetamide] was 24.2 nM.
The value for `CN(CC#N)C(=O)Cn1c(N2CC[C@@H](F)[C@H](N)C2)nc2cc(F)c(F)cc21` [Example 615, 2-(2-((3R,4R)-3-amino-4-fluoropiperidin-1-yl)-5,6-difluoro-1H-benzo[d]imidazol-1-yl)-N-(cyanomethyl)-N-methylacetamide] was 28.5 nM; that for `CCCN(C)C(=O)Cn1c(N2CC[C@@H](F)[C@H](N)C2)nc2cc(F)c(F)cc21` [Example 616, 2-(2-((3R,4R)-3-amino-4-fluoropiperidin-1-yl)-5,6-difluoro-1H-benzo[d]imidazol-1-yl)-N-methyl-N-propylacetamide] was 32.3 nM.
Regarding `N[C@@H]1CN(c2nc3cc(F)c(F)cc3n2CC(=O)N(CCO)C2CC2)CC[C@H]1F` [Example 617, 2-(2-((3R,4R)-3-amino-4-fluoropiperidin-1-yl)-5,6-difluoro-1H-benzo[d]imidazol-1-yl)-N-cyclopropyl-N-(2-hydroxyethyl)acetamide], the IC50 was found to be 33.2 nM.
The value for `N#CC1(F)CCN(C(=O)Cn2c(N3CC[C@@H](F)[C@H](N)C3)nc3cc(F)c(F)cc32)C1` (stereo partly drawn) [Example 618, 1-(2-(2-((3R,4R)-3-amino-4-fluoropiperidin-1-yl)-5,6-difluoro-1H-benzo[d]imidazol-1-yl)acetyl)-3-fluoropyrrolidine-3-carbonitrile] was 48.3 nM; that for `N[C@@H]1CN(c2nc3cc(F)c(F)cc3n2CC(=O)N2CC3CC2CO3)CC[C@H]1F` (stereo partly drawn) [Example 619, 2-(2-((3R,4R)-3-amino-4-fluoropiperidin-1-yl)-5,6-difluoro-1H-benzo[d]imidazol-1-yl)-1-(2-oxa-5-azabicyclo[2.2.1]heptan-5-yl)ethanone] was 57.4 nM.
Then `CN(CCC(F)(F)F)C(=O)Cn1c(N2CC[C@@H](F)[C@H](N)C2)nc2cc(F)c(F)cc21` [Example 622, -(2-((3R,4R)-3-amino-4-fluoropiperidin-1-yl)-5,6-difluoro-1H-benzo[d]imidazol-1-yl)-N-methyl-N-(3,3,3-trifluoropropyl)acetamide], with 78.9 nM; and `N[C@@H]1CN(c2nc3cc(F)c(F)cc3n2CC(=O)N2C[C@@H]3[C@H](C2)C3(F)F)CC[C@H]1F` [Example 623, 2-(2-((3R,4R)-3-amino-4-fluoropiperidin-1-yl)-5,6-difluoro-1H-benzo[d]imidazol-1-yl)-1-((1R,5S)-6,6-difluoro-3-azabicyclo[3.1.0]hexan-3-yl)ethanone], with 89 nM; and `N[C@@H]1CN(c2nc3cc(F)c(F)cc3n2CC(=O)N2CCN(c3ncccn3)CC2)CC[C@H]1F` [Example 624, 2-(2-((3R,4R)-3-amino-4-fluoropiperidin-1-yl)-5,6-difluoro-1H-benzo[d]imidazol-1-yl)-1-(4-(pyrimidin-2-yl)piperazin-1-yl)ethanone], with 102 nM.
In the case of `CC(C)C1CCN1C(=O)Cn1c(N2CC[C@@H](F)[C@H](N)C2)nc2cc(F)c(F)cc21` (stereo partly drawn) [Example 625, 2-(2-((3R,4R)-3-amino-4-fluoropiperidin-1-yl)-5,6-difluoro-1H-benzo[d]imidazol-1-yl)-1-(2-isopropylazetidin-1-yl)ethanone], the IC50 came out at 105 nM.
Then `N[C@@H]1CN(c2nc3cc(F)c(F)cc3n2CC(=O)N2CCC(OC(F)F)C2)CC[C@H]1F` (stereo partly drawn) [Example 626, 2-(2-((3R,4R)-3-amino-4-fluoropiperidin-1-yl)-5,6-difluoro-1H-benzo[d]imidazol-1-yl)-1-(3-(difluoromethoxy)pyrrolidin-1-yl)ethanone], with 117 nM.
